Data on 13 compounds can be found in patent publication US12234202B2, “Covalent inhibitors of coronavirus papain-like protease” (UT-Battelle, LLC, priority 2021, dated 2025).

Like-named read-outs stand apart in the source and are kept apart here. A value given as a limit tells only on which side of the number the result lay.

The target in data set [1] is T1, SARS-CoV-2 PLpro (Severe acute respiratory syndrome coronavirus 2, UniProt P0DTD1). Description: biochemical. The conditions noted are these: for kinact/KI / kinact/KI (M^−1 s^−1): second-order rate constant.
In data set [2] the target is T1, SARS-CoV-2 PLpro. Description: biochemical. It counts as biochemical. The conditions noted are these: after 30-minute incubation; Z-RLRGG-AMC.
Data set [3] relates to SARS-CoV-2 USA-WA1/2020. In words: microbe, parasite or virus in culture. The conditions noted are these: Severe acute respiratory syndrome coronavirus 2, Caco-2. It counts as cell-based.
Data set [4] concerns SARS-CoV-2 Delta (B.1.617.2). In words: microbe, parasite or virus in culture. The class given is cell-based. Conditions: Severe acute respiratory syndrome coronavirus 2, Caco-2.
For data set [5], the system named is Vero E6 cells.
The nature of data set [6]: in vitro. Conditions: human, microsomes.
For data set [7] the following is noted: mouse, in vivo.
Data set [8] in a line: in vitro. Conditions: African green monkey.
A short description of data set [9]: in vitro. Conditions: human, s9.
The test system of data set [10] is SARS-CoV-2 Omicron (B.1.1.529). Description: microbe, parasite or virus in culture. It counts as cell-based. The conditions noted are these: Severe acute respiratory syndrome coronavirus 2, Caco-2.
The test system of data set [11] is SARS-CoV-2 USA-WA1/2020. Description: CPE assay in Vero E6 cells, neutral red staining, USA-WA1/2020. The conditions noted are these: Severe acute respiratory syndrome coronavirus 2, Vero C1008. It counts as cell-based.
In data set [12] the test system is Vero E6 cells. Conditions: 2 μM CP-100356, Delta row.
The subject of the next data set is Caco-2 cells. The conditions noted are these: Delta row.
Data set [13] can be described thus: in vitro. Conditions: African green monkey. The source holds these as a separate data set.
The target in data set [14] is seven human DUBs, UCHL1, USP2, USP4, USP7, USP8, USP15, and USP30. Description: Human deubiquitinase selectivity screening. It counts as biochemical. The conditions noted are these: for IC50: UCHL1, USP2, USP4, USP7, USP8, USP15, USP30, read-out: IC50 (μM) values versus seven human deubiquitinases; for inhibition of human DUBs: concentrations up to 30 μM.
The test system of data set [15] is SARS-CoV-2 Delta (B.1.617.2). Description: CPE assay in Vero E6 cells, neutral red staining, Delta. It counts as cell-based. The conditions noted are these: Severe acute respiratory syndrome coronavirus 2, Vero C1008.
In data set [16] the test system is SARS-CoV-2 Omicron (B.1.1.529). Description: CPE assay in Vero E6 cells, neutral red staining, Omicron. It counts as cell-based. Conditions: Severe acute respiratory syndrome coronavirus 2, Vero C1008.
The nature of data set [17]: in vitro. The conditions noted are these: human.
The target in data set [18] is T1, SARS-CoV-2 PLpro. Description: biochemical. Conditions: Ub-rhodamine substrate.
Data set [19] relates to SARS-CoV-2 isolate USA-WA1/2020. In words: microbe, parasite or virus in culture. The class given is cell-based.
The target in data set [20] is T1, SARS-CoV-2 PLpro. In words: biochemical. Conditions: ISG15-CHOP2 substrate.
Data set [21] deals with viral replication in Vero E6 cells. The conditions noted are these: K. Ratia et al.; cited from earlier work.
The target in the next data set is SARS-CoV PLpro (Severe acute respiratory syndrome coronavirus (SARS-CoV), UniProt P0C6X7). The conditions noted are these: cited from earlier work.
The next data set addresses HAUSP (Homo sapiens (Human), UniProt Q93009). The conditions noted are these: K. Ratia et al.; cited from earlier work.
The target in data set [22] is ubiquitin C-terminal hydrolase UCH-L3 (Homo sapiens (Human), UniProt P15374). Conditions: K. Ratia et al.; cited from earlier work.
The target of a further data set is deISGylase USP18 (Homo sapiens (Human), UniProt Q9UMW8). Conditions: K. Ratia et al.; cited from earlier work.
For data set [23], the target named is ubiquitin C-terminal hydrolase UCH-L1 (Homo sapiens (Human), UniProt P09936). The conditions noted are these: K. Ratia et al.; cited from earlier work.
Another data set relates to cell viability. Conditions: concentrations up to 50 μM in cell viability assays; cited from earlier work.
Where [24] appears, read: time-dependent inhibition yes/no.
Where [25] appears, read: cytopathic effect in SARS-CoV-2-infected Vero E6 cells, 48 h, MOI 0.1.

Take `COC(=O)CCc1ccccc1C(=O)N[C@H](C)c1cccc2ccccc12` [Compound 3, methyl (R)-3-(2-((1-(naphthalen-1-yl)ethyl)carbamoyl)phenyl)-propanoate]: the Time dep. entry on SARS-CoV-2 PLpro [1] (setting [24]) is given as “no”.

As to `C[C@@H](NC(=O)c1ccccc1CCC(=O)NN)c1cccc2ccccc12` [Compound 5, (R)-2-(3-hydrazineyl-3-oxopropyl)-N-(1-(naphthalen-1-yl)ethyl)benzamide], the Time dep. entry at SARS-CoV-2 PLpro [1] (setting [24]) is “no”. This compound also showed a half-inhibitory concentration (IC50) at SARS-CoV-2 PLpro [2] of 24 µM.

Turning to `COC(=O)/C=C/C(=O)NNC(=O)CCc1ccccc1C(=O)N[C@H](C)c1cccc2ccccc12` [Compound 7, methyl(R,E)-4-(2-(3-(2-((1-(naphthalen-1 yl)ethyl)carbamoyl)-phenyl)propanoyl)hydrazineyl)-4-oxobut-2-enoate], the concentration for an effect of 90% (EC90) with SARS-CoV-2 USA-WA1/2020 [3] is 260 nM; in data set [4] it was greater than 10 µM; in [10], 2400 nM. In the data set with Vero E6 cells [5], the “Cytotox. (<30 μM)” value is “no”. For the same compound, the half-life at 1 μM amounted to 50 min in “in vitro [6]” and 60 min in the data set “in vitro [9]”. Also, in data set [7] (iv, 3 mg/kg), the “exposure following IV dosing” value is “Little exposure was observed”. Moreover, the “exposure following PO dosing” value in data set [7] (po, 10 mg/kg) is recorded as “no exposure recorded”. In “in vitro [8]”, the CC50 at 48 h is greater than 30 µM. Also, the Time dep. result on SARS-CoV-2 PLpro [1] (setting [24]) was “yes”. In addition, the 50% effective concentration (EC50) in the data set on SARS-CoV-2 USA-WA1/2020 [11] worked out at 68 nM; in [15], 290 nM; in data set [16], 680 nM. Moreover, the CC50 in the data set on Vero E6 cells [12], in the data set on Caco-2 cells, in the data set “in vitro [13]” and in “in vitro [17]” was greater than 10 µM throughout. Besides, the IC50 in data set [14] is greater than 30 µM. For the same compound, the “inhibition of human DUBs” value in data set [14] was “no inhibition was observed”.

In the case of `COC(=O)/C=C/C(=O)NNC(=O)CCc1ccc(NC(C)=O)cc1C(=O)N[C@H](C)c1cccc2ccccc12` [Compound 8, methyl-(R,E)-4-(2-(3-(4-acetamido-2-((1-(naphthalen-1-yl)ethyl)carbamoyl)phenyl)propanoyl)hydrazineyl)-4-oxobut-2-enoate], in the data set on Vero E6 cells [5], the “Cytotox. (<30 μM)” value is “no”. At SARS-CoV-2 PLpro [1], the kinact/KI was determined as 14000 M⁻¹ s⁻¹ and the “kinact/KI (M^−1 s^−1)” value was 14,000 M^−1 s^−1.

Regarding `C[C@@H](NC(=O)c1ccccc1CCC(=O)NNC(=O)CCl)c1cccc2ccccc12` [Compound 9, (R)-2-(3-(2-(2-chloroacetyl)hydrazineyl)-3-oxopropyl)-N-(1-(naphthalen-1-yl)ethyl)benzamide], in the data set on Vero E6 cells [5], the “Cytotox. (<30 μM)” value is recorded as “no”. For the same compound, the half-life at 1 μM in the data set “in vitro [6]” turned out to be 7 min; in “in vitro [9]”, 3 min. In addition, the IC50 against SARS-CoV-2 PLpro [18] is 1960 nM; in data set [14] it was greater than 30 µM; on SARS-CoV-2 PLpro [2], 5.4 µM; against SARS-CoV-2 PLpro [20], 20.2 µM. The same compound yielded a CC50 at 48 h in the data set “in vitro [8]” greater than 30 µM. In addition, at SARS-CoV-2 PLpro [1], the kinact/KI turned out to be 100 M⁻¹ s⁻¹. Also, the “kinact/KI (M^−1 s^−1)” value at SARS-CoV-2 PLpro [1] was 103 M⁻¹ s⁻¹. The Time dep. entry at SARS-CoV-2 PLpro [1] (setting [24]) was “yes”. Moreover, the “inhibition of human DUBs” value in data set [14] is listed as “no inhibition was observed”. This compound also displayed a 50% effective concentration (EC50) in [19] (Severe acute respiratory syndrome coronavirus 2, Vero C1008, cytopathic effect in SARS-CoV-2-infected Vero E6 cells, 48 h, MOI 0.1) of 34 µM.

As for `CC(=O)Nc1ccc(CCC(=O)NNC(=O)CCl)c(C(=O)N[C@H](C)c2cccc3ccccc23)c1` [Compound 10, (R)-5-acetamido-2-(3-(2-(2-chloroacetyl)hydrazineyl)-3-oxopropyl)-N-(1-(naphthalen-1-yl)ethyl)benzamide], the “Cytotox. (<30 μM)” value in the data set on Vero E6 cells [5] was “no”. In addition, on SARS-CoV-2 PLpro [1], the inactivation efficiency (kinact/KI) was 120 M⁻¹ s⁻¹ and the “kinact/KI (M^−1 s^−1)” value was 120 M⁻¹ s⁻¹. In addition, the Time dep. result at SARS-CoV-2 PLpro [1] (setting [24]) was “yes”. On SARS-CoV-2 PLpro [2], this compound showed an IC50 of 4.4 µM. For the same compound, in [19] (SARS-CoV-2-infected Vero E6 cells), the cytoprotective effects entry is “insignificant cytoprotective effects”. For the same compound, in data set [19] (setting [25]), the “EC50 (μM)” value is reported as “no CPE”.

As for `C[C@@H](NC(=O)c1ccccc1CCC(=O)NNC(=O)CC#N)c1cccc2ccccc12` [Compound 11, (R)-2-(3-(2-(2-cyanoacetyl)hydrazineyl)-3-oxopropyl)-N-(1-(naphthalen-1-yl)ethyl)benzamide], the “Cytotox. (<30 μM)” value in the data set with Vero E6 cells [5] was “no”. At SARS-CoV-2 PLpro [1] (setting [24]), the Time dep. entry is “not and no”. At SARS-CoV-2 PLpro [2], this compound showed a half-inhibitory concentration (IC50) of 8 µM. Further, the “EC50 (μM)” value in [19] (setting [25]) is reported as “no CPE”.

As to `C#CC(=O)NNC(=O)CCc1ccccc1C(=O)N[C@H](C)c1cccc2ccccc12` [Compound 12, (R)—N-(1-(naphthalen-1-yl)ethyl)-2-(3-oxo-3-(2-propioloylhydrazineyl)propyl)benzamide], the “Cytotox. (<30 μM)” value with Vero E6 cells [5] is given as “yes”. This compound also came in with a CC50 at 48 h in “in vitro [8]” of 1 to 5 µM. Moreover, the kinact/KI on SARS-CoV-2 PLpro [1] was 4800 M⁻¹ s⁻¹. In addition, at SARS-CoV-2 PLpro [1] (setting [24]), the Time dep. result is “Time-dependent inhibition was observed and yes”. The same compound returned an IC50 on SARS-CoV-2 PLpro [2] of 0.098 µM. For the same compound, the “EC50 (μM)” value in data set [19] (setting [25]) was “no CPE”.

`C[C@@H](NC(=O)c1ccccc1CCC(=O)NNC(=O)C(C#N)=CC1CC1)c1cccc2ccccc12` [Compound 13, (R)-2-(3-(2-(2-cyano-3-cyclopropylacryloyl)hydrazineyl)-3-oxopropyl)-N-(1-(naphthalen-1-yl)ethyl)benzamide]: in the data set on Vero E6 cells [5], the “Cytotox. (<30 μM)” value is “yes”. The same compound came in with a CC50 at 48 h in the data set “in vitro [8]” of 1 to 5 µM. On SARS-CoV-2 PLpro [1] (setting [24]), the Time dep. entry was “not and no”. On SARS-CoV-2 PLpro [2], this compound had a half-inhibitory concentration (IC50) greater than 200 µM. Also, the “EC50 (μM)” value in data set [19] (setting [25]) was “no CPE”.

As to `Cc1ccccc1C(=O)N[C@H](C)c1cccc2ccccc12` [Compound 14, (R)-2-methyl-N-(1-(naphthalen-1-yl)ethyl)benzamide], the “Cytotox. (<30 μM)” value in the data set on Vero E6 cells [5] is given as “no”. Moreover, the half-life at 1 μM in the data set “in vitro [6]” was 41 min; in the data set “in vitro [9]”, greater than 60 min. Besides, the EC50 in data set [21] was 10 µM. The compound also displayed an IC50 against SARS-CoV-2 PLpro [2] of 100 µM. In addition, the “EC50 (μM)” value in data set [19] (setting [25]) is on record as “no CPE”.

As to `CC(=O)Nc1ccc(C)c(C(=O)N[C@H](C)c2cccc3ccccc23)c1` [Compound 15, (R)-5-acetamido-2-methyl-N-(1-(naphthalen-1-yl)ethyl)benzamide], the “Cytotox. (<30 μM)” value with Vero E6 cells [5] is “no”. For the same compound, the EC50 in [21] is 13.1 µM. In addition, the IC50 on SARS-CoV PLpro is 2600 nM; on SARS-CoV-2 PLpro [2] it was 6.2 µM. In addition, in [19] (setting [25]), the “EC50 (μM)” value is recorded as “no CPE”.

Compound `CCC(CC)COC(=O)[C@H](C)N[P@](=O)(OC[C@H]1O[C@@](C#N)(c2ccc3c(N)ncnn23)[C@H](O)[C@@H]1O)Oc1ccccc1` [remdesivir, reference compound] came in with a concentration for a half-maximal effect (EC50) in [19] (Severe acute respiratory syndrome coronavirus 2, Vero C1008, 48 h) of 0.74 µM.

GRL0617: the half-maximal inhibitory concentration (IC50) (on HAUSP; in [22]; at deISGylase USP18; in data set [23]) was greater than 100 µM throughout. Further, the Time dep. entry at SARS-CoV-2 PLpro [1] is on record as “no”. Moreover, in the data set with cell viability, the cytotoxicity entry is listed as “does not display cytotoxicity”.

As usually defined, the IC50 is the concentration that inhibits the measured activity by half. In general, EC90 refers to the concentration at which the effect reaches the 90% level. For orientation: half-life means how long it takes for the measured level to halve. The EC50 is the concentration giving half of the maximal effect. In general, kinact/KI refers to the maximal inactivation rate divided by the concentration that gives half of it.
